Each block holds one molecule with its values, some of them ahead of it.
Assays:
[1] = solubility observed during assay preparation; format: physicochemical; conditions: for solubility in buffer with 5% DMSO: after being dissolved in DMSO initially
[2] = biological target: rhodopsin in urea-washed rod outer-segment membranes (MII state, R*) (Bos taurus, UniProt P02699); assay: extra MII stabilization assay; format: biochemical, bovine
[3] = biological target: R*-Gt interaction (photoactivated rhodopsin / transducin) (Bos taurus, UniProt P02699); assay: R*-Gt binding and release assay; parameters: species or system bovine
Sequence of R*-Gt interaction (photoactivated rhodopsin / transducin) (P02699 whole entry): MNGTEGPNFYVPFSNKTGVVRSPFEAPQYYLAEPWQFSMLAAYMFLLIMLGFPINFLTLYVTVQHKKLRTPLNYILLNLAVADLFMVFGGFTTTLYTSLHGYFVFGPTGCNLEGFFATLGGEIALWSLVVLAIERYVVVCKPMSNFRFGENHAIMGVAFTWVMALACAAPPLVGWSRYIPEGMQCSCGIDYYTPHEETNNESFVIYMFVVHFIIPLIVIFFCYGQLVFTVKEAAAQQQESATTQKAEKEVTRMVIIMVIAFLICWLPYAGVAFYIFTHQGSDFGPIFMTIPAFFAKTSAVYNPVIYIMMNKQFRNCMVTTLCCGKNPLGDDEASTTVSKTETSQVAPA

Sequence of rhodopsin in urea-washed rod outer-segment membranes (MII state, R*) (P02699 whole entry): as above

SMILES: C[C@]12CC[C@H]3[C@@H](CCC4=CC(=O)CC[C@@]43C)[C@@H]1CC[C@@H]2C(=O)COS(=O)(=O)c1ccc(Br)cc1 [Compound 3]
solubility in buffer with 3% DMSO/3% butanol ([1]; dissolved in DMSO/butanol solution, then buffer added): remained soluble

activity in extra MII assay using pure compound ([2]; pure compound): neither showed significant activity
SMILES: CC1(C)[C@@H](O)CC[C@]2(C)[C@H]3C(=O)C=C4[C@@H]5C[C@@](C)(C(=O)O)CC[C@]5(C)CC[C@@]4(C)[C@]3(C)CC[C@@H]12 [Compound 12]

EC50 [2]: 350 µM
IC50 [3]: 2000 µM
solubility in buffer with 5% DMSO [1]: soluble
SMILES: CC1(C)CC[C@]2(C(=O)O)CC[C@]3(C)C(=CC[C@@H]4[C@@]5(C)C[C@H](O)[C@H](O)[C@@](C)(C(=O)O)[C@@H]5CC[C@]43C)[C@@H]2C1 [Compound 16, medicagenic acid]

solubility in buffer with 5% DMSO [1]: soluble
SMILES: C[C@H]1[C@H](C)CC[C@]2(C(=O)O)CC[C@]3(C)C(=CC[C@@H]4[C@@]5(C)C[C@@H](O)[C@H](O)[C@@](C)(CO)[C@@H]5[C@H](O)C[C@]43C)[C@H]12 [Compound 2, madecassic acid]

— PMC2664537 (Journal of medicinal chemistry, 2008)
